Source: patent US20110027372A1, “MULTIPARTICULATES COMPRISING LOW-SOLUBILITY DRUGS AND CARRIERS THAT RESULT IN RAPID DRUG RELEASE” (priority 2005, published 2011)

Experiment: Ratio of melting temperature to glass-transition temperature (Tm/Tg) of sugar alcohols
Format: physicochemical
Description: The inventors addressed this problem by using a sugar alcohol that rapidly crystallizes, resulting in improved recovery and efficiency during the multiparticulate-formation process. Without wishing to be bound by any particular theory, it is believed that the tendency for a sugar alcohol to crystallize from an aqueous solution is characterized by the ratio of the Tm of the sugar alcohol (in K) to the glass-transition temperature for the alcohol, Tg (in K) of the sugar alcohol. The driving force for crystallization is controlled primarily by Tm, while the kinetic barrier to crystallization is controlled primarily by the Tg. The ratio, Tm/Tg (in K/K), indicates the relative propensity for a sugar alcohol to crystallize. The inventors have discovered that sugar alcohols for which the ratio of Tm in K to Tg in K is at least about 1.5 can be effectively used to make multiparticulates with the desired properties. Preferably, this Tm/Tg ratio (K/K) is at least about 1.6, and more preferably at least about 1.65. Examples of suitable sugar alcohols include mannitol (Tm=438 K; Tg=234 K; Tm/Tg=1.87) and erythritol (Tm=394 K; Tg=231 K; Tm/Tg=1.71). Mixtures of such sugar alcohols may also be used.

Q: For `OC[C@@H](O)[C@@H](O)CO` [Erythritol], which Tm/Tg is on record?
A: The Tm/Tg was 1.71 K/K.

Q: For `OC[C@@H](O)[C@@H](O[C@H]1O[C@H](CO)[C@@H](O)[C@H](O)[C@H]1O)[C@H](O)[C@@H](O)CO` [Maltitol], which Tm/Tg is on record?
A: Its Tm/Tg is 1.32 K/K.

Q: Which Tm/Tg does the source give for `OC[C@@H](O)[C@@H](O)[C@H](O)[C@H](O)CO` [Mannitol] here?
A: The Tm/Tg was 1.87 K/K.

Q: Which Tm/Tg does the source give for `OC[C@@H](O)[C@@H](O)[C@H](O)[C@@H](O)CO` [Sorbitol] here?
A: Its Tm/Tg is 1.38 K/K.

Q: Which Tm/Tg does the source give for `OC[C@@H](O)[C@H](O)[C@@H](O)CO` [Xylitol] here?
A: The Tm/Tg was 1.46 K/K.
